Experimental data published in ChEMBL document CHEMBL1201862, “PubChem BioAssay data set” (2004).
The source made the active and inactive calls.

Key:
[1] = target: T1, Eukaryotic translation initiation factor 2-alpha kinase 3 (Homo sapiens, UniProt Q9NZJ5); test: Counterscreen assay for PERK inhibitors: Dose response cell-based high throughput screening assay to measure inhibition of PERK at 6 hours. [Related pubchem assays: 1522, 1416 ]; type: functional
T1 sequence (Q9NZJ5 whole entry): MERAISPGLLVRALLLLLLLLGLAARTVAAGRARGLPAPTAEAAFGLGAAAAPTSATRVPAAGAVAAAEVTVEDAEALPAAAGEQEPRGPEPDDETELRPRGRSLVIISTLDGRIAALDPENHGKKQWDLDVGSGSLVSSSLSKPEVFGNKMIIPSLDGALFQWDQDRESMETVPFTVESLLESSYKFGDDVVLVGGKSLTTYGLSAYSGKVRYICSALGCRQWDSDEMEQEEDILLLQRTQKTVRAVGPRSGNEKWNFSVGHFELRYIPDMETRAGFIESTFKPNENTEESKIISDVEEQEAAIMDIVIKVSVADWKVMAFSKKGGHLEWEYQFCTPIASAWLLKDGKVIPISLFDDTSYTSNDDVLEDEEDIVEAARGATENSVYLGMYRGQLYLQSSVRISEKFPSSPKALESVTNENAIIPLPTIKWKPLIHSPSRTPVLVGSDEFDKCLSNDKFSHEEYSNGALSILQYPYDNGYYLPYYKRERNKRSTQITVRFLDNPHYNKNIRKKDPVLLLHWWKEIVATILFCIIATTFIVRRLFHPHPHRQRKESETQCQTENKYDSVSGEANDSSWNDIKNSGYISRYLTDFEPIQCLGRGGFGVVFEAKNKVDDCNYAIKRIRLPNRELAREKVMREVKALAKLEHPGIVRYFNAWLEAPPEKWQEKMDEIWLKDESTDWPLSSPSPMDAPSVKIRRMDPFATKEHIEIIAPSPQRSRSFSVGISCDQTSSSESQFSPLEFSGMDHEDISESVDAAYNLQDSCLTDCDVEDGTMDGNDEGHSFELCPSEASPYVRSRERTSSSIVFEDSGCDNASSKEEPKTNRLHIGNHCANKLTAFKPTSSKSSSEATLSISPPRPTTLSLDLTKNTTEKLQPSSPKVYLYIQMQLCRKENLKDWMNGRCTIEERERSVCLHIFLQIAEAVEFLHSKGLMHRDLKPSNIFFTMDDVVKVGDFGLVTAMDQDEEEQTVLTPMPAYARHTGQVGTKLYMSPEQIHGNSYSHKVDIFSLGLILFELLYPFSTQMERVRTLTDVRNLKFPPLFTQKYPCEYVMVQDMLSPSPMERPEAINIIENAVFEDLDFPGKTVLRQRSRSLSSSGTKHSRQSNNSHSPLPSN

[2] = target: T1, Eukaryotic translation initiation factor 2-alpha kinase 3; test: Dose response cell-based high-throughput screening assay to measure PERK inhibition. [Related pubchem assays: 1416 ]; type: functional
[3] = target: Estrogen receptor (Homo sapiens, UniProt P03372);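 note: potency for inhibiting coactivator peptide recruitment to the receptor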
[4] = target: Oxytocin receptor (Homo sapiens, UniProt P30559); test: Fluorescence-based cell-based high throughput dose response assay for agonists of the Oxytocin Receptor (OXTR). [Related pubchem assays: 2435 (Primary screen (OXTR agonists in singlicate)), 434991 (Counterscreen (V1R agonists in triplicate)), 2482 (Summary (OXTR agonists)), 434963 (Confirmation screen (OXTR agonists in triplicate))]; type: functional
[5] = target: Vasopressin V1a receptor (Homo sapiens, UniProt P37288); test: Counterscreen for Oxytocin Receptor (OXTR) agonists: Fluorescence-based cell-based high throughput dose response assay to identify agonists of the vasopressin 1 receptor (V1R). [Related pubchem assays: 2435 (Primary screen (OXTR agonists in singlicate)), 434991 (Counterscreen (V1R agonists in triplicate)), 2482 (Summary (OXTR agonists)) …; type: functional
[6] = target: Lysosomal acid glucosylceramidase (Homo sapiens, UniProt P04062); test: Dose response cell-based high throughput screening assay to identify enhancers of beta-glucosidase activity. [Related pubchem assays: 784 ]; type: functional
[7] = target: Intestinal-type alkaline phosphatase (Homo sapiens, UniProt P09923); test: Dose Response confirmation of uHTS hits from a small molecule inhibitors of human intestinal alkaline phosphatase via a luminescent assay. [Related pubchem assays (depositor defined):AID2544, AID2574]; type: functional
[8] = tested on: Streptococcus; test: Luminescence Microorganism-Based Dose Response Follow up to Identify Compounds Cytotoxic to Streptococcus. [Related pubchem assays: 1677 (Project Summary), 1915, 1914, 1902 (Retest at Dose), 1900 (Counter Screen), 1662 (Primary HTS)]; type: functional, organism-based
[9] = CCR5-tropic HIV-1 fusion blockers – cell-based, CCR5-tropic Env, dose response (AID 2279); type: functional
[10] = target: FAD-linked sulfhydryl oxidase ALR (Homo sapiens, UniProt P55789); test: ALR-catalysed DTT oxidation blockers – biochemical, H2O2 detection, luminescence, cherry-pick, dose response (AID 493248)
[11] = target: T2, Cysteine protease ATG4B (Homo sapiens, UniProt Q9Y4P1); type: functional;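 note: Fluorescence-based dose-response confirmation assay measuring inhibition of ATG4B activity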
T2 sequence (Q9Y4P1 whole entry): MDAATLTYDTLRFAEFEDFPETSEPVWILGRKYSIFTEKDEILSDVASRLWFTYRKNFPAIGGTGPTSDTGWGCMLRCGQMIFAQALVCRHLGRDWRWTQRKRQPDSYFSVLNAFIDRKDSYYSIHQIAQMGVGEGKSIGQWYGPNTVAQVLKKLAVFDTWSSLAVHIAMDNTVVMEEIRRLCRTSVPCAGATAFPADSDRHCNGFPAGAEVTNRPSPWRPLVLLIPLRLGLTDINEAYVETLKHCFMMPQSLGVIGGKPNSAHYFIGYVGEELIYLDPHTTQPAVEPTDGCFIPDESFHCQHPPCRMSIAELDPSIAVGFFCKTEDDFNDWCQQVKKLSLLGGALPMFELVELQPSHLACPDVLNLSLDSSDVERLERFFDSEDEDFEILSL

[12] = target: Phospholipase A2 (Homo sapiens, UniProt P04054); type: functional;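 note: confirmatory dose-response counterscreen on phospholipase A2, testing hits that came from an ultra-high-throughput screen for ATG4B inhibitors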
[13] = target: T3, High affinity choline transporter 1 (Homo sapiens, UniProt Q9GZV3); test: human choline transporter blockers, potency – cell-based, 5-point CRC, membrane potential dye, dose response (AID 504840); type: functional
T3 sequence (Q9GZV3 whole entry): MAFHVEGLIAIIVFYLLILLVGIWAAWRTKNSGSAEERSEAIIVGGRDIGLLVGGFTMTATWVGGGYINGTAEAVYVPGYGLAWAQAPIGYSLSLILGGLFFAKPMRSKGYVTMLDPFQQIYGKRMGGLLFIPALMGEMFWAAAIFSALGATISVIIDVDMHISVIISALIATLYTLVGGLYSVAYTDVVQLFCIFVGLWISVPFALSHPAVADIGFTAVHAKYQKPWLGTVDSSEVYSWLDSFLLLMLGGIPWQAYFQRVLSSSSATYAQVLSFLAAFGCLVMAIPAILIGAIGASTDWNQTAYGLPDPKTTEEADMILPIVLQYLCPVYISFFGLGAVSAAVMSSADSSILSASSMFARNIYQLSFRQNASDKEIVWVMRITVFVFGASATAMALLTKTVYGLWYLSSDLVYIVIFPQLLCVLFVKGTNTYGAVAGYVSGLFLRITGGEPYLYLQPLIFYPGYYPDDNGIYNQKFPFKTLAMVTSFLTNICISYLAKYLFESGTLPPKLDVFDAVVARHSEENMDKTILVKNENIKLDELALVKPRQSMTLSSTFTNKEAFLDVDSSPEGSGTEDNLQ

Sequence of Vasopressin V1a receptor (P37288 whole entry): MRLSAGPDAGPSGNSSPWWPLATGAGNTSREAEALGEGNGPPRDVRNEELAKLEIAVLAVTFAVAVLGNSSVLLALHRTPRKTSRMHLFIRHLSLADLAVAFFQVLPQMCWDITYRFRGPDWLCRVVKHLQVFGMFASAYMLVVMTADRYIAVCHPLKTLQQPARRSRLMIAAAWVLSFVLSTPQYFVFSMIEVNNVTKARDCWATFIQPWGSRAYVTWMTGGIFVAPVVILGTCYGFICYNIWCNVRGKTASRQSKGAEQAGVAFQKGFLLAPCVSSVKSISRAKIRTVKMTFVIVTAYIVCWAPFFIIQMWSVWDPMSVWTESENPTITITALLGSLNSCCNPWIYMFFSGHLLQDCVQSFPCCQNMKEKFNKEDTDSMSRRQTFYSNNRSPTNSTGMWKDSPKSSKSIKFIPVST
Sequence of Oxytocin receptor (P30559 whole entry): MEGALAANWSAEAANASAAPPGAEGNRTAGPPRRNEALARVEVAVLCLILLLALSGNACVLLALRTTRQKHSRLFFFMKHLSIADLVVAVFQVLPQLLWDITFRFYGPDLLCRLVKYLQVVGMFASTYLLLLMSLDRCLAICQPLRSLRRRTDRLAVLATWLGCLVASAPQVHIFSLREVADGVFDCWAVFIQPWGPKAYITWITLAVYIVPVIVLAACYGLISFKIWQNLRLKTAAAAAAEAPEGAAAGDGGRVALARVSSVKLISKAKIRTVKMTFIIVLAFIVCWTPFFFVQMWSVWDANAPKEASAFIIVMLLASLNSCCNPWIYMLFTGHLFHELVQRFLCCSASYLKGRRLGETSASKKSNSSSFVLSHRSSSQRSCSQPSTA
Sequence of FAD-linked sulfhydryl oxidase ALR (P55789 whole entry): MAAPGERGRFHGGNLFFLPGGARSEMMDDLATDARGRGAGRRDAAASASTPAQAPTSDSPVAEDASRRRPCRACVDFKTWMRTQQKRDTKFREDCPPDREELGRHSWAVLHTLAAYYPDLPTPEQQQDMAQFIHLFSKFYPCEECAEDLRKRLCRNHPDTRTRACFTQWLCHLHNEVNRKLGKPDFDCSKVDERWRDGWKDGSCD
Sequence of Intestinal-type alkaline phosphatase (P09923 whole entry): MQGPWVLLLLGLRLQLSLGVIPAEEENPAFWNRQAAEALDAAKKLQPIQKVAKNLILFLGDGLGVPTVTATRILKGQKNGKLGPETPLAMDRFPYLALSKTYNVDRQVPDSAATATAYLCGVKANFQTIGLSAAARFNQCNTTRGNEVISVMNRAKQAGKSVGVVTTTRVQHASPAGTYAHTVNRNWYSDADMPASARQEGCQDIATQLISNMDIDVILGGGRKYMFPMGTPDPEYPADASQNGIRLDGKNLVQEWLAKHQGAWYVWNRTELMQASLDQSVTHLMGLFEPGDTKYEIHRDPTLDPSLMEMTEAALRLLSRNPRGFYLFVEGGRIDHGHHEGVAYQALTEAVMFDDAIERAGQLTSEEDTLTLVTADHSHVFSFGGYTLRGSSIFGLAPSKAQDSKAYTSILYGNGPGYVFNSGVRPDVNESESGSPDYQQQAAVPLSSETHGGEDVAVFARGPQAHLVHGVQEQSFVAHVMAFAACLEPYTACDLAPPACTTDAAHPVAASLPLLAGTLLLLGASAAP
Sequence of Estrogen receptor (P03372 whole entry): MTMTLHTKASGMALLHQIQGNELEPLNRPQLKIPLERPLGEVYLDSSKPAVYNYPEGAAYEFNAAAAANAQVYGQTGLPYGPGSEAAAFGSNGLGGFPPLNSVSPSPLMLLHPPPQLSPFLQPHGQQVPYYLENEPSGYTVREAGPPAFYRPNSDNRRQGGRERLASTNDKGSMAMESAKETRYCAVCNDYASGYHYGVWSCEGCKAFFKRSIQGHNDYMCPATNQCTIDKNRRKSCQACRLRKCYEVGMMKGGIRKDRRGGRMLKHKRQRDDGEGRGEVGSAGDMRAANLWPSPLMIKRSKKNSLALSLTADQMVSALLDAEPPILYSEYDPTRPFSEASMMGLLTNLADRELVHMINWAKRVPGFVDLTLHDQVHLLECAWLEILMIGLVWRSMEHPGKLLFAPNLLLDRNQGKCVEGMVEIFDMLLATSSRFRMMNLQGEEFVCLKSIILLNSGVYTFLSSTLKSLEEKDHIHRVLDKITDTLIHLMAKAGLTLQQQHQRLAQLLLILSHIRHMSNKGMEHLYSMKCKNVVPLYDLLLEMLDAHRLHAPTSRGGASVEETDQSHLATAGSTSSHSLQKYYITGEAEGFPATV
Sequence of Lysosomal acid glucosylceramidase (P04062 whole entry): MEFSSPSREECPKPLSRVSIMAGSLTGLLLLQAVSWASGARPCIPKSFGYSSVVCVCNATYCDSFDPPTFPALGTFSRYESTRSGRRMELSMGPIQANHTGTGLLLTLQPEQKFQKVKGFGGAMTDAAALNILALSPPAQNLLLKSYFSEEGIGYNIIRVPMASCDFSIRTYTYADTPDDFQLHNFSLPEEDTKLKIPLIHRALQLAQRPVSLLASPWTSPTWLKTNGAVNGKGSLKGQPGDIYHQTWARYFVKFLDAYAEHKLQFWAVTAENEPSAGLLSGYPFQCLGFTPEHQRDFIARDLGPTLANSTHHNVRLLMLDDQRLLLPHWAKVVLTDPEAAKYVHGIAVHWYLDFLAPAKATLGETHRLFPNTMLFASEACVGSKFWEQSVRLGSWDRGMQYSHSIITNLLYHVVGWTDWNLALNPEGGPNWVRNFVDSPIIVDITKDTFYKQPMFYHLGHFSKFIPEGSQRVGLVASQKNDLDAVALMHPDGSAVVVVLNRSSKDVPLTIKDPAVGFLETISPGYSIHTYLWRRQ
Sequence of Phospholipase A2 (P04054 whole entry): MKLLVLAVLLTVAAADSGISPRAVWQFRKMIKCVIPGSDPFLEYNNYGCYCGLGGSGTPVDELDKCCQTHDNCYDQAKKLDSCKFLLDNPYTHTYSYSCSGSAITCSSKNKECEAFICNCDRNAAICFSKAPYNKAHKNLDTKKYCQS

Cc1cc(C)c(NC2=NS(=O)(=O)c3ccccc32)c(C)c1
EC50 [1]: > 55.7 µM (not active) | EC50 [2]: > 55.7 µM (not active)

CCn1c2ccccc2c2nnc(SCC(=O)Nc3ccc4c(c3)OCO4)nc21
IC50 [3]: > 50 µM (not active)

CC(Sc1ccc(Cl)cc1)C(=O)Nc1ccc(S(=O)(=O)N2CCOCC2)cc1 (stereo not given)
EC50 [4]: > 29.9 µM (not active) | EC50 [5]: > 29.9 µM (not active)

COCc1cc(C)nc(NC2CCCCC2)c1C#N
EC50 [6]: > 50 µM (not active)

N#Cc1cc(Oc2ccccc2)c(-n2nnc3ccccc32)cc1C#N
IC50 [7]: > 100 µM (inactive)

O=C(c1ccccc1C(F)(F)F)n1c2ccccc2c2ccccc21
EC50 [8]: > 500 µM (not active)

COC(C(=O)Nc1ccc(S(=O)(=O)Nc2ccc(F)cc2)cc1)c1ccccc1 (stereo not given)
EC50 [4]: > 29.9 µM (not active) | EC50 [5]: > 29.9 µM (not active)

COc1ccc(/C=C2/SC(=O)N(CCCCCC(=O)Nc3ccccc3C(=O)O)C2=S)cc1
IC50 [9]: > 50 µM (active) | AC50 [10]: 3.05 µM (active) | IC50 [11]: 14.5 µM (active) | IC50 [12]: 5.25 µM (active) | IC50 [13]: 13.8 µM (active)
